Type in all cases: toxicity, cell-based
Data set [1] can be described thus: MMV: MTT Cytotoxicity Assay Day 3 pi, U87-CD4-CXCR4 cells, % cell death @ 5mM compound. Particulars: human, u87-cd4-cxcr4, 5000 µM.
A short description of data set [2]: MMV: MTT Cytotoxicity Assay Day 7 pi of Assay #6 (compound washed out Day 1 pi), U87-CD4-CCR5 cells, % cell death @ 5mM compound. The conditions noted are these: human, u87-cd4-ccr5, 5000 µM.
Data set [3] in a line: MMV: MTT Cytotoxicity Assay Day 3 pi, U87-CD4-CCR5 cells, % cell death @ 5mM compound. Particulars: human, u87-cd4-ccr5, 5000 µM.
A short description of data set [4]: MMV: MTT Cytotoxicity Assay Day 7 pi of Assay #7 (compound washed out Day 1 pi), U87-CD4-CXCR4 cells, % cell death @ 5mM compound. Particulars: human, u87-cd4-cxcr4, 5000 µM.
Data set [5] in a line: MMV: MTT Cytotoxicity Assay Day 7 pi of Assay #10 (NO washout), U87-CD4-CCR5 cells, % cell death @ 5mM compound. Particulars: human, u87-cd4-ccr5, 5000 µM.
A short description of data set [6]: MMV: MTT Cytotoxicity Assay Day 7 pi of Assay #11 (NO washout), U87-CD4-CXCR4 cells, % cell death @ 5mM compound. Particulars: human, u87-cd4-cxcr4, 5000 µM.

Turning to `CN1CCN(c2nc(Nc3ccc(O)cc3)nc3ccccc23)CC1.Cl`, the “% Cell Death” value in data set [1] is 32; in data set [2] it was -8; in data set [3], 11; in data set [4] it was -23; in data set [5] it was 43; in data set [6] it was 110.
As for `O=C(NC1CCCC1)c1ccc(N2CCC(NCc3cccc(C(F)(F)F)c3)CC2)cc1`, the “% Cell Death” value in data set [1] is recorded as 35; in data set [2], -1; in data set [3] it was 4; in data set [4], 7; in data set [5], -4; in data set [6] it was 6.
Take `CCOc1c(Cl)cc(CNC(C)C(O)c2ccccc2)cc1OC` (configuration not stated): the “% Cell Death” value is recorded as 22 in data set [1]; 0 in data set [2]; -4 in data set [3]; -15 in data set [4]; 98 in data set [5]; -28 in data set [6].
As to `CCCCCCc1cc2cc(-c3csc(C=Cc4ccccc4)n3)c(=O)oc2cc1O`, the “% Cell Death” value in data set [1] is listed as 41; in data set [2], -23; in data set [3], 35; in data set [4] it was -39; in data set [5], 24; in data set [6], -36.
Consider `Cc1ccc2c(C)nc(Nc3nc(C)cc(-c4ccccc4)n3)nc2c1`, for which the “% Cell Death” value in data set [1] was found to be 99; in data set [2], 98; in data set [3], 107; in data set [4], 97; in data set [5], 114; in data set [6], 104.
With `c1ccc(/C2=N/c3ccccc3/N=C(/c3ccccc3)c3ccccc32)cc1`, the “% Cell Death” value in data set [1] is reported as 28; in data set [2], 0; in data set [3] it was -3; in data set [4] it was -11; in data set [5], 16; in data set [6], 7.
For `COc1cc(C(=O)Nc2ccc(-c3nc4ccccc4[nH]3)cc2)cc(OC)c1OC`, the “% Cell Death” value was 29 in data set [1]; -4 in data set [2]; -27 in data set [3]; -7 in data set [4]; 29 in data set [5]; -49 in data set [6].
On to `CCOc1ccc(N2C(N)=NC(N)=NC2(C)C)cc1.Cl`, for which the “% Cell Death” value in data set [1] was 57; in data set [2], 56; in data set [3], 56; in data set [4], 35; in data set [5], 135; in data set [6] it was -36.
Take `Cn1c(=O)c2cc(C(=O)NCCCN3CCCCCC3)sc2c2ccccc21`: the “% Cell Death” value in data set [1] is reported as 29; in data set [2] it was 35; in data set [3], 4; in data set [4], -51; in data set [5], 23; in data set [6] it was 29.
On to `Nc1nc(Nc2cccc(F)c2)nc2ccccc12`, for which the “% Cell Death” value in data set [1] is 38; in data set [2] it was -19; in data set [3] it was 42; in data set [4], -13; in data set [5], 45; in data set [6] it was 36.
As for `O=C(Nc1ccc(N2CCCCC2)c(Cl)c1)c1ccc(Br)o1`, the “% Cell Death” value in data set [1] turned out to be 61; in data set [2], 26; in data set [3] it was 97; in data set [4], 53; in data set [5] it was 76; in data set [6] it was 99.
Take `O=C(O)C(=O)O.Oc1ccc(Br)cc1CN1CCN(Cc2cccc(F)c2)CC1`: the “% Cell Death” value in data set [1] worked out at 101; in data set [2] it was 94; in data set [3] it was 107; in data set [4] it was 86; in data set [5], 103; in data set [6] it was 112.
For the compound `CC1=C(CC(=O)c2cccc([N+](=O)[O-])c2)C(=O)c2ccccc2C1=O`, the “% Cell Death” value in data set [1] is given as 76; in data set [2], 100; in data set [3], 92; in data set [4], 91; in data set [5] it was 94; in data set [6] it was 106.
As to `CCOC(=O)c1c(C)n(-c2ccc(Cl)cc2)c2ccc(OC(=O)C=Cc3ccccc3)cc12`, the “% Cell Death” value in data set [1] is on record as 26; in data set [2] it was 4; in data set [3], 18; in data set [4], -5; in data set [5], 2; in data set [6], 51.
`CCN1CCN(c2c(C(=O)c3ccccc3)cnc3cc(OC)c(OC)cc23)CC1`: the “% Cell Death” value in data set [1] is given as 85; in data set [2] it was 23; in data set [3] it was 43; in data set [4], -11; in data set [5], 47; in data set [6], 99.
Consider `CCOc1ccc(-c2nonc2NC(=O)c2cccc(C)c2)cc1OCC`, for which the “% Cell Death” value in data set [1] was 13; in data set [2], -8; in data set [3], -8; in data set [4], -14; in data set [5], 19; in data set [6], -48.
Turning to `O=C(CCc1ccccc1)c1ccccc1OCC(O)CN1CCCCC1` (configuration not stated), the “% Cell Death” value in data set [1] amounted to 44; in data set [2], 12; in data set [3], 53; in data set [4], 77; in data set [5], 136; in data set [6], 93.
Take `CCN(CC)CCNc1ccnc2cc(Cl)ccc12`: the “% Cell Death” value is 36 in data set [1]; 21 in data set [2]; 4 in data set [3]; -5 in data set [4]; 17 in data set [5]; -13 in data set [6].
Consider `CC(C)(C)c1ccc(O)c(CNC2CCCCC2)c1`, for which the “% Cell Death” value stood at 66 in data set [1]; 69 in data set [2]; 108 in data set [3]; 96 in data set [4]; 132 in data set [5]; 101 in data set [6].
In the case of `CCOC(=O)C1=C(c2ccccc2)N=c2sc(=Cc3cc(C)n(-c4ccc(F)cc4)c3C)c(=O)n2C1c1cccc(OC)c1OC` (configuration not stated), the “% Cell Death” value in data set [1] is given as 45; in data set [2], 5; in data set [3], 18; in data set [4], -3; in data set [5], -17; in data set [6], 20.
For the compound `CCOC(=O)C1CCN(C(=O)CN2C(=O)c3ccccc3C2c2c[nH]c3ccccc23)CC1` (configuration not stated), the “% Cell Death” value in data set [1] came out at 35; in data set [2], 52; in data set [3] it was 107; in data set [4], 39; in data set [5] it was 109; in data set [6], 112.
With `COc1ccc(C(=O)NC(c2ccccc2Cl)c2cc(Cl)c3cccnc3c2O)cc1` (configuration not stated), the “% Cell Death” value in data set [1] was found to be 81; in data set [2], 23; in data set [3], 50; in data set [4] it was 3; in data set [5], 11; in data set [6], 6.

The values are drawn from ChEMBL document CHEMBL3301472, “MMV Malaria Box HIV and cytotoxicity screening”.
